Drawing on patent US10662187B2, “Bruton's tyrosine kinase inhibitors” (Zibo Biopolar Changsheng Pharmaceutical Co. Ltd., priority 2016, dated 2020), this text covers IC50 for 30 compounds.

The structures appear in SMILES notation.

Chain of BTK (Q06187 whole entry, species assumed): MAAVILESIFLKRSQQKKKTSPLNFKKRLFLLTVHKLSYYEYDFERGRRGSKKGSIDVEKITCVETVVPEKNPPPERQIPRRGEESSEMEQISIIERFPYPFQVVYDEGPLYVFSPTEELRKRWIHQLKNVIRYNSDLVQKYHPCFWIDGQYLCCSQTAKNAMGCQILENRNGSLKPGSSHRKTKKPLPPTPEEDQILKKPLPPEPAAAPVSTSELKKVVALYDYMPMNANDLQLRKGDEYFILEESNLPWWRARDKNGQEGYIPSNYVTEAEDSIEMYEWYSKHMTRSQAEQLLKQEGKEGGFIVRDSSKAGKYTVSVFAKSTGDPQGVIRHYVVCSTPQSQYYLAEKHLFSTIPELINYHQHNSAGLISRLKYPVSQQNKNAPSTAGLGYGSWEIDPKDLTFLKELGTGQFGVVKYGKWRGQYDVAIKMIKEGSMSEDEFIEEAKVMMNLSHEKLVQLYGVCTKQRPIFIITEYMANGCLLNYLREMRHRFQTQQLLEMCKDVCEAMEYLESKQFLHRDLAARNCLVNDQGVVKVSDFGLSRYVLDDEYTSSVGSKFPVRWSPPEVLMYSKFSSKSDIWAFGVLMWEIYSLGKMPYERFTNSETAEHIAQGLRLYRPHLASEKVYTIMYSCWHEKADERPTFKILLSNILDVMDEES

This assay concerns the target BTK (Homo sapiens (Human), UniProt Q06187). The assay is described as follows: Btk kinase assay (HTRF). The class given is biochemical. Conditions: [ATP]=80 μM, BTK=3.4 nM; read-out: BTK Inhibition. As to the method:
Btk Kinase Assay and Other Kinases Assay Btk kinase activity was determined using a homogenous time resolved fluorescence (HTRF) methodology. Measurements were performed in a reaction volume of 15 μL using 384-well assay plates. Kinase enzyme, inhibitor, ATP and 1 μM peptide substrate were incubated in a reaction buffer compose of Hepes 50 mM (pH7.0), NaN3 0.02%, BSA 0.01%, Orthocanadate 0.1 mM. […] For each compound, enzyme activity as measured at various concentrations of compound, Negative control reactions were performed in the absence of inhibitor in two replicates and eight no enzyme controls were used to determine baseline fluorescence levels.
(In general: Time-resolved FRET reads energy transfer from a long-lived donor to a nearby acceptor.)
In the case of `C=CC(=O)N1CC[C@@H](n2nc(-c3ccc(Oc4cccc(OC)c4F)cc3)c3cncc(C)c32)C1` [Compound 5, (R)-1-(3-(3-(4-(2-fluoro-3-methoxyphenoxy)phenyl)-7-methyl-1H-pyrazolo [4,3-c]pyridin-1-yl)pyrrolidin-1-yl) prop-2-en-1-one], the IC50 was less than 0.01 µM.

On to `C=CC(=O)N1CC[C@@H](n2nc(-c3ccc(Oc4cccc5ccccc45)cc3)c3cnccc32)C1` [Compound 7, (R)-1-(3-(3-(4-(naphthalen-1-yloxy)phenyl)-1H-pyrazolo[4,3-c]pyridin-1-yl)pyrrolidin-1-yl)prop-2-en-1-one], for which the IC50 fell in the range of 0.01 to 0.1 µM.

As for `C=CC(=O)N1CCC[C@@H](n2nc(-c3ccc(Oc4cccc5c4OCO5)cc3)c3cnccc32)C1` [Compound 8, (R)-1-(3-(3-(4-(benzo[d][1,3]dioxol-4-yloxy)phenyl)-1H-pyrazolo[4,3-c]pyridin-1-yl)piperidin-1-yl)prop-2-en-1-one], the IC50 fell in the range of 0.1 to 1 µM.

`C=CC(=O)N1CCC[C@@H](n2nc(-c3ccc(Oc4cccc(Cl)c4)cc3)c3cnccc32)C1` [Compound 9, (R)-1-(3-(3-(4-(3-chlorophenoxy)phenyl)-1H-pyrazolo[4,3-c]pyridin-1-yl)piperidin-1-yl)prop-2-en-1-one]: the IC50 is 0.01 to 0.1 µM.

With `C=CC(=O)N1CC[C@@H](n2nc(-c3ccc(Oc4cccc(C)c4)cc3)c3cnccc32)C1` [Compound 10, (R)-1-(3-(3-(4-(m-tolyloxy)phenyl)-1H-pyrazolo[4,3-c]pyridin-1-yl)pyrrolidin-1-yl)prop-2-en-1-one], the IC50 lay in the range of 0.01 to 0.1 µM.

For the compound `C=CC(=O)N1CC[C@@H](n2nc(-c3ccc(Oc4cccc(C)c4C)cc3)c3cnccc32)C1` [Compound 12, (R)-1-(3-(3-(4-(2,3-dimethylphenoxy)phenyl)-1H-pyrazolo[4,3-c]pyridin-1-yl)pyrrolidin-1-yl)prop-2-en-1-one], the IC50 was 0.01 to 0.1 µM.

In the case of `C=CC(=O)N1CC[C@@H](n2nc(-c3ccc(Oc4cccc(OC)c4Cl)cc3)c3cnccc32)C1` [Compound 13, (R)-1-(3-(3-(4-(2-chloro-3-methoxyphenoxy)phenyl)-1H-pyrazolo[4,3-c]pyridin-1-yl)pyrrolidin-1-yl)prop-2-en-1-one], the IC50 was less than 0.01 µM.

Turning to `C=CC(=O)N1CC[C@@H](n2nc(-c3ccc(Oc4cccc(F)c4C)cc3)c3cnccc32)C1` [Compound 14, (R)-1-(3-(3-(4-(3-fluoro-2-methylphenoxy)phenyl)-1H-pyrazolo[4,3-c]pyridin-1-yl)pyrrolidin-1-yl)prop-2-en-1-one], the IC50 was in the range of 0.01 to 0.1 µM.

On to `C=CC(=O)N1CCC[C@@H](n2nc(-c3ccc(Oc4cccc(F)c4C)cc3)c3cnccc32)C1` [Compound 16, (R)-1-(3-(3-(4-(3-fluoro-2-methylphenoxy)phenyl)-1H-pyrazolo[4,3-c]pyridin-1-yl)piperidin-1-yl)prop-2-en-1-one], for which the IC50 is 0.01 to 0.1 µM.

On to `C=CC(=O)N1CCC(Cn2nc(-c3ccc(Oc4ccccc4)cc3)c3cnccc32)C1` (stereo not drawn) [Compound 21, 1-(3-((3-(4-phenoxyphenyl)-1H-pyrazolo[4,3-c]pyridin-1-yl)methyl)pyrrolidin-1-yl)prop-2-en-1-one], for which the IC50 was 0.01 to 0.1 µM.

On to `C=CC(=O)Nc1cccc(-n2nc(-c3ccc(Oc4ccccc4)cc3)c3cnccc32)c1` [Compound 22, N-(3-(3-(4-phenoxyphenyl)-1H-pyrazolo[4,3-c]pyridin-1-yl)phenyl)acrylamide], for which the IC50 lay in the range of 0.01 to 0.1 µM.

For `C=CC(=O)N1CCC[C@@H](n2nc(-c3ccc(Oc4cccc(OC(C)C)c4)cc3)c3cnccc32)C1` [Compound 23, (R)-1-(3-(3-(4-(3-isopropoxyphenoxy)phenyl)-1H-pyrazolo[4,3-c]pyridin-1-yl)piperidin-1-yl)prop-2-en-1-one], the IC50 was in the range of 0.01 to 0.1 µM.

Consider `C=CC(=O)N1CCC[C@@H](n2nc(-c3ccc(Oc4cccc(C)c4C)cc3)c3cnccc32)C1` [Compound 24, (R)-1-(3-(3-(4-(2,3-dimethylphenoxy)phenyl)-1H-pyrazolo[4,3-c]pyridin-1-yl)piperidin-1-yl)prop-2-en-1-one], for which the IC50 is less than 0.01 µM.

Take `CC#CC(=O)N1CCC[C@@H](n2nc(-c3ccc(Oc4cccc(OC)c4Cl)cc3)c3cnccc32)C1` [Compound 25, (R)-1-(3-(3-(4-(2-chloro-3-methoxyphenoxy)phenyl)-1H-pyrazolo[4,3-c]pyridin-1-yl)piperidin-1-yl)but-2-yn-1-one]: the IC50 was in the range of 0.1 to 1 µM.

On to `C=CC(=O)N1CC2(CC(n3nc(-c4ccc(Oc5cccc(OC)c5F)cc4)c4cnccc43)C2)C1` [Compound 26, 1-(6-(3-(4-(2-fluoro-3-methoxyphenoxy)phenyl)-1H-pyrazolo[4,3-c]pyridin-1-yl)-2-azaspiro[3.3]heptan-2-yl)prop-2-en-1-one], for which the IC50 was less than 0.01 µM.

For the compound `C=CC(=O)N1CC[C@@H](n2nc(-c3ccc(Oc4cccc(OC)c4F)cc3)c3cncc(Cl)c32)C1` [Compound 27, (R)-1-(3-(7-chloro-3-(4-(2-fluoro-3-methoxyphenoxy)phenyl)-1H-pyrazolo[4,3-c]pyridin-1-yl)pyrrolidin-1-yl)prop-2-en-1-one], the IC50 is 0.01 to 0.1 µM.

On to `C=CC(=O)N1CC[C@@H](n2nc(-c3ccc(Oc4cccc(OC)c4F)cc3)c3cncc(C#N)c32)C1` [Compound 28, (R)-1-(1-acryloylpyrrolidin-3-yl)-3-(4-(2-fluoro-3-methoxyphenoxy)phenyl)-1H-pyrazolo[4,3-c]pyridine-7-carbonitrile], for which the IC50 was less than 0.01 µM.

As for `C=CC(=O)N1CCC[C@@H](n2nc(-c3ccc(OC4CCCCC4)cc3)c3cnccc32)C1` [Compound 29, (R)-1-(3-(3-(4-(cyclohexyloxy)phenyl)-1H-pyrazolo[4,3-c]pyridin-1-yl)piperidin-1-yl)prop-2-en-1-one], the IC50 was in the range of 0.01 to 0.1 µM.

Turning to `C=CC(=O)N1CC2(CC(n3nc(-c4ccc(Oc5cccc(OC)c5Cl)cc4)c4cnccc43)C2)C1` [Compound 30, 1-(6-(3-(4-(2-chloro-3-methoxyphenoxy)phenyl)-1H-pyrazolo[4,3-c]pyridin-1-yl)-2-azaspiro[3.3]heptan-2-yl)prop-2-en-1-one], the IC50 lay within 0.1 to 1 µM.

`C=CC(=O)N1CC[C@@H](n2nc(-c3ccc(Oc4cccc5c4CCC5)cc3)c3cnccc32)C1` [Compound 31, (R)-1-(3-(3-(4-((2,3-dihydro-1H-inden-4-yl)oxy)phenyl)-1H-pyrazolo[4,3-c]pyridin-1-yl)pyrrolidin-1-yl)prop-2-en-1-one]: the IC50 is 0.01 to 0.1 µM.

Regarding `C=CC(=O)N1CCC[C@@H](n2nc(-c3ccc(Oc4ccccc4)cc3)c3cnccc32)C1` [Compound 33, (R)-1-(3-(3-(4-phenoxyphenyl)-1H-pyrazolo[4,3-c]pyridin-1-yl)piperidin-1-yl)prop-2-en-1-one], the IC50 is less than 0.01 µM.

Regarding `C=CC(=O)N1CCC[C@H](n2nc(-c3ccc(Oc4ccccc4)c(Cl)c3)c3cnccc32)C1` [Compound 35, (S)-1-(3-(3-(3-chloro-4-phenoxyphenyl)-1H-pyrazolo[4,3-c]pyridin-1-yl)piperidin-1-yl)prop-2-en-1-one], the IC50 lay in the range of 0.01 to 0.1 µM.

`C=CC(=O)N1CC[C@H](n2nc(-c3ccc(Oc4cccc(Cl)c4)cc3)c3cnccc32)C1` [Compound 36, (S)-1-(3-(3-(4-(3-chlorophenoxy)phenyl)-1H-pyrazolo[4,3-c]pyridin-1-yl)pyrrolidin-1-yl)prop-2-en-1-one]: the IC50 fell in the range of 0.01 to 0.1 µM.

With `C=CC(=O)N1CCC[C@H](n2nc(-c3ccc(Oc4cccc(C)c4)cc3)c3cnccc32)C1` [Compound 37, (S)-1-(3-(3-(4-(m-tolyloxy)phenyl)-1H-pyrazolo[4,3-c]pyridin-1-yl)piperidin-1-yl)prop-2-en-1-one], the IC50 was in the range of 0.01 to 0.1 µM.

With `C=CC(=O)N1CC[C@@H](n2nc3ccncc3c2-c2ccc(Oc3cccc(F)c3Cl)cc2)C1` [Compound 38, (R)-1-(3-(3-(4-(2-chloro-3-fluorophenoxy)phenyl)-2H-pyrazolo[4,3-c]pyridin-2-yl)pyrrolidin-1-yl)prop-2-en-1-one], the IC50 was in the range of 0.01 to 0.1 µM.

Consider `C=CC(=O)N1CCC[C@@H](n2nc3ccncc3c2-c2ccc(Oc3cccc(F)c3Cl)cc2)C1` [Compound 39, (R)-1-(3-(3-(4-(2-chloro-3-fluorophenoxy)phenyl)-2H-pyrazolo[4,3-c]pyridin-2-yl)piperidin-1-yl)prop-2-en-1-one], for which the IC50 is 0.01 to 0.1 µM.

Consider `C=CC(=O)N1CCC[C@H](n2nc(-c3ccc(Oc4cccc(F)c4Cl)cc3)c3cnccc32)C1` [Compound 40, (S)-1-(3-(3-(4-(2-chloro-3-fluorophenoxy)phenyl)-1H-pyrazolo[4,3-c]pyridin-1-yl)piperidin-1-yl)prop-2-en-1-one], for which the IC50 lay in the range of 0.01 to 0.1 µM.

Take `C=CC(=O)N1CC[C@H](n2nc(-c3ccc(Oc4cccc(Cl)c4Cl)cc3)c3cnccc32)C1` [Compound 42, (S)-1-(3-(3-(4-(2,3-dichlorophenoxy)phenyl)-1H-pyrazolo[4,3-c]pyridin-1-yl)pyrrolidin-1-yl)prop-2-en-1-one]: the IC50 is less than 0.01 µM.

Regarding `C=CC(=O)N1CCC[C@H](n2nc(-c3ccc(Oc4cccc(Cl)c4Cl)cc3)c3cnccc32)C1` [Compound 44, (S)-1-(3-(3-(4-(2,3-dichlorophenoxy)phenyl)-1H-pyrazolo[4,3-c]pyridin-1-yl)piperidin-1-yl)prop-2-en-1-one], the IC50 was less than 0.01 µM.

On to `C=CC(=O)N1CC[C@@H](n2nc(-c3ccc(Oc4cccc(OC)c4F)cc3)c3c2CCN(C(C)=O)C3)C1` [Compound 45, (R)-1-(3-(5-acetyl-3-(4-(2-fluoro-3-methoxyphenoxy)phenyl)-4,5,6,7-tetrahydro-1H-pyrazolo[4,3-c]pyridin-1-yl)pyrrolidin-1-yl)prop-2-en-1-one], for which the IC50 fell in the range of 1 to 10 µM.
